Biological target: T1, SCD1 (Homo sapiens, UniProt O00767)
T1 construct: host or cells: S. cerevisiae ole1Δ strain, plasmid pRS316 with TDH3 promoter and CYC1 terminator
T1 sequence (O00767 1-359): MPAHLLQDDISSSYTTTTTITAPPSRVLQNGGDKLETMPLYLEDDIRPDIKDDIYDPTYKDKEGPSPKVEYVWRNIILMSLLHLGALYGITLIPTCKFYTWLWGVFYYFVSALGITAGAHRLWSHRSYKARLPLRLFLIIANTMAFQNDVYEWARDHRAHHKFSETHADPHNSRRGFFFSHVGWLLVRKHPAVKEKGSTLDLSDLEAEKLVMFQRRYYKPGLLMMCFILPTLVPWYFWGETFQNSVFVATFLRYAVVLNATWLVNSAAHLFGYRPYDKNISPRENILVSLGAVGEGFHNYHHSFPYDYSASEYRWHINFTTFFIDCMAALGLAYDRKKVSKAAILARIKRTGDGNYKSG
Assay: Growth inhibition of humanized yeast expressing SCD1 as sole desaturase
Format: cell-based
Settings: humanized yeast expressing SCD1
Protocol: Strain ole1Δ (yeast ole1 deletion mutant) was constructed by deleting OLE1 with NAT-MX6 in BY4741, amplifying the deletion cassette from the genomic DNA of the resulting strain with primers flanking the ORF by 1000 bp upstream and downstream, transforming the resulting deletion cassette into W303 pdr1Δ pdr3Δ, and plating transformants on YPD media containing G418 (200 μg/mL) and nourseothricin (100 μg/mL) with 0.01% TWEEN®-20 and 0.5 mM oleic and palmitoleic acids.
The coding sequence of yeast OLE1 was also cloned into this plasmid). These clones were then transformed into the ole1Δ strain and plated on CSM-Ura media (CSM lacking uracil) with 2% glucose (w/v) and independent colonies were isolated and amplified.
All compound profiling experiments were performed using the same basic protocol. Different genetic backgrounds (e.g., gene deletions) or conditions (e.g., addition of oleic and palmitoleic acid) were replaced as indicated below.
Yeast were cultured using standard techniques in complete synthetic media (CSM) and yeast nitrogen base supplemented with 2% (w/v) carbon source (glucose, raffinose, or galactose) to regulate the expression of the toxic disease protein. An initial starter culture was inoculated in 3 mL CSM-Glucose media and incubated overnight in a 30° C. shaker incubator (225 rpm). Saturated morning cultures were then diluted 1:20 in fresh CSM-Raffinose media and grown for 6 h to an OD600 (optical density) of ˜0.4-0.8 at 30° C. with shaking.
Compound administration was performed in two separate steps. First, 15 μL of CSM-Galactose (induces expression of toxic protein) was dispensed into clear 384 well assay plates using a MULTIDROP™ Combi reagent dispenser. […] The cultures described above were then diluted to a 2× concentration (0.03 and 0.08 for alpha-synuclein and ApoE, final OD600 of 0.015 and 0.04) in CSM-Galactose. For wild-type and Ole1/SCD1/SCD5 plasmid-containing strains, the 2× cell density was 0.02. […] For 96-well assays (FIGS. 1A and 1B), compound dilutions in DMSO were generated in 96 well plates and 1 μL was manually pipetted into 96 well clear bottom assay plates.
For experiments using a plasmid-borne copy of Ole1, SCD1, or SCD5 (FIGS. 3B, 6, and 7), media lacking uracil (SX-Ura, where X is glucose, raffinose, or galactose), was used for all steps of the compound profiling protocol to ensure its maintenance throughout the assay.
After yeast delivery, assay plates were incubated under humidified conditions at 30° C. for 24 to 40 h. ApoE4 rescue experiments were stopped at 24 h, aSyn experiments at 40 h, Ole1 at 24 h, and SCD1/SCD5 at 40 h. The growth of yeast was monitored by reading the OD600 of each well using a microplate reader (Perkin Elmer EnVision™).

| SMILES | IC50 |
| --- | --- |
| COc1ccc(-c2noc(CCNC(=O)CNC(=O)c3ccccc3)n2)cc1OC [Compound 484] | > 45 µM |
| O=C(CNC(=O)c1ccccc1)NCCc1nc(-c2ccccc2)no1 [Compound 485] | > 45 µM |
| COc1ccc(-c2noc(CCNC(=O)COc3cc(O)c4c(c3)OC(C)(C)CC4=O)n2)cc1OC [Compound 486] | > 45 µM |
| CC1(C)CC(=O)c2c(O)cc(OCC(=O)NCCc3nc(-c4ccccc4)no3)cc2O1 [Compound 487] | > 45 µM |
| COc1ccc(-c2noc(C3CCNCC3)n2)cc1OC [Compound 488] | > 45 µM |
| COc1cccc(-c2noc(C3CC(=O)N(c4ccc(C)c(C)c4)C3)n2)c1 (centres unmarked) [Compound 489] | 41 µM |
| CCN1C(=O)COc2ccc(-c3noc(C4(c5ccc(OC)cc5)CC4)n3)cc21 [Compound 491] | > 45 µM |
| CCN(Cc1nc(-c2ccc(OC)c(OC)c2)no1)C(=O)Cc1ccccc1 [Compound 492] | > 45 µM |
| CCNCc1nc(-c2ccc3c(c2)N(CC)C(=O)CO3)no1 [Compound 493] | > 45 µM |
| CCN(Cc1nc(-c2ccc3c(c2)N(CC)C(=O)CO3)no1)C(=O)Cc1cccc2ccccc12 [Compound 494] | > 45 µM |

Same assay, conditions: humanized yeast expressing human SCD1

| SMILES | IC50 |
| --- | --- |
| Cc1nn(C)c2cc(-c3noc(C4CCN(C(=O)c5ccccc5Cl)CC4)n3)ccc12 [Compound 288] | > 45 µM |
| Cc1c2ccc(-c3noc(C4CCN(C(=O)CNC(=O)c5ccccc5)CC4)n3)cc2nn1C(C)C [Compound 289] | > 45 µM |
| Cc1nn(C)c2cc(-c3noc(C4CCN(C(=O)c5ccc(C(C)C)cc5)CC4)n3)ccc12 [Compound 290] | > 45 µM |
| Cc1nn(C)c2cc(-c3noc(C4CCN(C(=O)c5ccc(Cl)cc5)CC4)n3)ccc12 [Compound 291] | > 45 µM |
| Cc1nn(C)c2cc(-c3noc(C4CCN(C(=O)c5cc(F)ccc5C(F)(F)F)CC4)n3)ccc12 [Compound 292] | > 45 µM |
| Cc1nn(C)c2cc(-c3noc(N4CCN(C(=O)c5ccccc5C(F)(F)F)CC4)n3)ccc12 [Compound 295] | > 45 µM |
| Cc1nn(C)c2ccc(-c3noc(C4CCN(C(=O)c5ccc(C(C)C)cc5)CC4)n3)cc12 [Compound 297] | > 45 µM |
| CCn1nc(C)c2ccc(-c3noc(C4CCN(C(=O)OC(C)(C)C)CC4)n3)cc21 [Compound 301] | > 45 µM |
| Cc1nn(C)c2cc(-c3noc(C4CCN(C(=O)CNC(=O)c5cc(F)ccc5C(F)(F)F)CC4)n3)ccc12 [Compound 304] | > 45 µM |
| CCc1nn(C)c2cc(-c3noc(C4CCN(C(=O)CNC(=O)c5ccccc5)CC4)n3)ccc12 [Compound 309] | > 45 µM |
| CCN1C(=O)CN(C)c2cc(-c3noc(C4CCN(C(=O)CNC(=O)c5ccccc5)CC4)n3)ccc21 [Compound 310] | > 45 µM |
| Cc1nn(C)c2cc(-c3noc(C4CCN(C(=O)N5CCOCC5)CC4)n3)ccc12 [Compound 311] | > 45 µM |
| Cc1nn(C)c2cc(-c3noc(C4CCN(C(=O)CNC(=O)c5ccc(C(F)(F)F)cc5)CC4)n3)ccc12 [Compound 317] | > 45 µM |
| CCn1nc2cc(-c3noc(C4CCN(C(=O)CNC(=O)c5ccccc5)CC4)n3)ccc2c1C [Compound 320] | > 45 µM |
| CCc1c2ccc(-c3noc(C4CCN(C(=O)CNC(=O)c5ccccc5)CC4)n3)cc2nn1C [Compound 321] | > 45 µM |
| Cc1nn(C)c2cc(-c3nc(C4CCN(C(=O)CNC(=O)c5ccccc5)CC4)no3)ccc12 [Compound 326] | > 45 µM |
| Cc1nn(C)c2cc(-c3noc(N4CCN(C(=O)N5CCCCC5)CC4)n3)ccc12 [Compound 327] | > 45 µM |
| Cc1nn(C)c2cc(-c3noc(C4CCN(C(=O)CNC(=O)c5cc(Cl)ccc5C(F)(F)F)CC4)n3)ccc12 [Compound 328] | > 45 µM |
| Cc1nn(C)c2cc(-c3noc(C4CCN(C(=O)N[C@@H]5C[C@@H]5c5ccccc5)CC4)n3)ccc12 [Compound 329] | > 45 µM |
| O=C(c1ccccc1)N1CCC(c2nc(N3CC4(COC4)C3)no2)CC1 [Compound 334] | > 45 µM |
| O=C(c1ccccc1)N1CCC(c2nc(N3CC4(CCCO4)C3)no2)CC1 [Compound 335] | > 45 µM |
| CC(C)c1ccc(C(=O)N2CCC(c3nc(N4CC5(CCCO5)C4)no3)CC2)cc1 [Compound 336] | > 45 µM |
| CC(C)c1ccc(C(=O)N2CCC(c3nc(N4CC5(COC5)C4)no3)CC2)cc1 [Compound 337] | > 45 µM |
| Cc1nn(C(C)C)c2cc(-c3noc(C4CCN(C(=O)OC(C)(C)C)CC4)n3)ccc12 [Compound 343] | > 45 µM |
| COC(=O)N1CCC(c2nc(-c3ccc4cnn(C(C)C)c4c3)no2)CC1 [Compound 355] | > 45 µM |

| SMILES | IC50 |
| --- | --- |
| COC(=O)N1CCN(c2nc(-c3ccc4cnn(C(C)C)c4c3)no2)CC1 [Compound 356] | > 45 µM |
| CC(C)OC(=O)N1CCC(c2nc(-c3ccc4cnn(C(C)C)c4c3)no2)CC1 [Compound 357] | > 45 µM |
| CC(C)n1ncc2ccc(-c3noc(C4CCN(C(=O)COc5ccccc5)CC4)n3)cc21 [Compound 358] | > 45 µM |
| Cn1ncc2ccc(-c3noc(C4CCN(C(=O)OC(C)(C)C)CC4)n3)cc21 [Compound 359] | > 45 µM |
| CC(C)(C)OC(=O)N1CCC(c2nc(-c3ccc4cnn(C5CC5)c4c3)no2)CC1 [Compound 360] | > 45 µM |
| CCOC(=O)N1CCC(c2nc(-c3ccc4cnn(C(C)C)c4c3)no2)CC1 [Compound 361] | > 45 µM |
| CC(C)n1ncc2ccc(-c3noc(N4CCN(C(=O)c5ccccc5)CC4)n3)cc21 [Compound 362] | > 45 µM |
| CC(C)n1ncc2ccc(-c3noc(C4CCN(C(=O)c5ccc(Cl)cc5)CC4)n3)cc21 [Compound 363] | > 45 µM |
| CC(C)n1ncc2ccc(-c3noc(N4CCN(C(=O)c5ccccc5Cl)CC4)n3)cc21 [Compound 364] | > 45 µM |
| Cc1nn(C)c2cc(-c3noc(C4CN(C(=O)OC(C)(C)C)C4)n3)ccc12 [Compound 365] | > 45 µM |
| CC(C)n1ncc2ccc(-c3noc(N4CCN(C(=O)CC5(C)CC5)CC4)n3)cc21 [Compound 495] | > 45 µM |
| CC(C)n1ncc2ccc(-c3noc(N4C[C@H]5CN(C(=O)CC(C)(C)C)C[C@H]5C4)n3)cc21 [Compound 497] | > 45 µM |
| CC(C)n1ncc2ccc(-c3noc([C@@H]4[C@@H]5CN(C(=O)OC(C)(C)C)C[C@@H]54)n3)cc21 [Compound 498] | > 45 µM |
| CC(C)n1ncc2ccc(-c3nc(C4CCN(C(=O)c5ccccn5)CC4)no3)cc21 [Compound 499] | > 45 µM |
| Cc1nn(C)c2cc(-c3noc(C4CCN(C(=O)CC5CN(C(=O)OC(C)(C)C)C5)CC4)n3)ccc12 [Compound 502] | > 45 µM |
| Cc1nn(C)c2cc(-c3nsc(C4CCN(C(=O)OC(C)(C)C)CC4)n3)ccc12 [Compound 503] | > 45 µM |
| CC(C)n1ncc2ccc(-c3nc(C4CCN(C(=O)c5ccc(Cl)cc5)CC4)no3)cc21 [Compound 505] | > 45 µM |
| CC(C)n1ncc2ccc(-c3nc(C4CCN(C(=O)c5cccc(F)c5)CC4)no3)cc21 [Compound 506] | > 45 µM |
| CC(C)OC(=O)N1CCC(c2nc(-c3ccc4oc(=O)n(C(C)C)c4c3)no2)CC1 [Compound 507] | > 45 µM |
| CC(C)n1ncc2ccc(-c3noc(C4=C(F)CN(C(=O)OC(C)(C)C)CC4)n3)cc21 [Compound 510] | > 45 µM |
| CC(C)n1ncc2ccc(-c3noc(C4CCN(C(=O)[C@@H]5CC(=O)N(c6cccc(C#N)c6)C5)CC4)n3)cc21 [Compound 528] | > 45 µM |
| CC(C)n1ncc2ccc(-c3noc(C4CCN(C(=O)[C@H]5CC(=O)N(c6cccc(C#N)c6)C5)CC4)n3)cc21 [Compound 529] | > 45 µM |
| CC(C)n1ncc2ccc(-c3noc(N4C[C@@H]5CNC[C@H]5C4)n3)cc21 [Compound 530] | > 45 µM |
| CC(C)n1ncc2ccc(-c3noc(C4CCN(C(=O)c5ccccc5F)CC4)n3)cc21 [Compound 532] | > 45 µM |

Reference: US20240400546A1, “COMPOUNDS AND USES THEREOF” (JANSSEN PHARMACEUTICA NV, priority 2016, published 2024)
